Experimental data as given in patent US6750228B1, “Aromatic sulfone hydroxamic acid metalloprotease inhibitor” (priority 1997, dated 2004).
Where a name gives a salt, the structure may show the parent alone. Read-outs that look alike come from different tables or passages of the source.

Experiments:
Experiment in all cases: biochemical
MMP-1 = biological target: T1, MMP-1 (Homo sapiens, UniProt P03956); conditions: recombinant human MMP-1, MCA peptide substrate 4 μM, pH 7.5, room temperature; read-out: MMP-1 IC50
T1 construct: made in house; host or cells: transfected HT-1080 cells (provided by Dr. Harold Welgus, Washington University)
T1 sequence (P03956 100-469): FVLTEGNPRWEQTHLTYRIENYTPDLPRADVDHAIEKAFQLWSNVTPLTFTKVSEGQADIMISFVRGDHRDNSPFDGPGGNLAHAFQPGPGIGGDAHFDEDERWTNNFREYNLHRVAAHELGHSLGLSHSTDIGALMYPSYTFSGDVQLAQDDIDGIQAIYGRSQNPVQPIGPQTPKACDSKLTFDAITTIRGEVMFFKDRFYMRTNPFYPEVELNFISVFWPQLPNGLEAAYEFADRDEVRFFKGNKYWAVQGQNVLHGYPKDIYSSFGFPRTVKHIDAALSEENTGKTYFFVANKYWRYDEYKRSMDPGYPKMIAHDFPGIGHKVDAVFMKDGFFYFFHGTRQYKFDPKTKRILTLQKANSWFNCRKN
Procedure, shortened: (§1)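 Assay buffer 100 mM Tris-HCl, 100 mM NaCl, 10 mM CaCl2, pH 7.5. Activated MMP + inhibitor, 5 min RT; then methoxycoumarin peptide substrate, 4 μM final. Readout fluorescence; IC50 calculated.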

MMP-13 = biological target: T2, MMP-13 (Homo sapiens, UniProt P45452); conditions: recombinant human MMP-13, MCA peptide substrate 4 μM, pH 7.5, room temperature
T2 construct: made in house; host or cells: baculovirus / insect cells
Procedure, shortened: as §1

MMP-2 = biological target: T3, MMP-2 (Homo sapiens, UniProt P08253)
T3 construct: made in house; provided by Dr. Gregory Goldberg, Washington University
T3 sequence (P08253 110-660): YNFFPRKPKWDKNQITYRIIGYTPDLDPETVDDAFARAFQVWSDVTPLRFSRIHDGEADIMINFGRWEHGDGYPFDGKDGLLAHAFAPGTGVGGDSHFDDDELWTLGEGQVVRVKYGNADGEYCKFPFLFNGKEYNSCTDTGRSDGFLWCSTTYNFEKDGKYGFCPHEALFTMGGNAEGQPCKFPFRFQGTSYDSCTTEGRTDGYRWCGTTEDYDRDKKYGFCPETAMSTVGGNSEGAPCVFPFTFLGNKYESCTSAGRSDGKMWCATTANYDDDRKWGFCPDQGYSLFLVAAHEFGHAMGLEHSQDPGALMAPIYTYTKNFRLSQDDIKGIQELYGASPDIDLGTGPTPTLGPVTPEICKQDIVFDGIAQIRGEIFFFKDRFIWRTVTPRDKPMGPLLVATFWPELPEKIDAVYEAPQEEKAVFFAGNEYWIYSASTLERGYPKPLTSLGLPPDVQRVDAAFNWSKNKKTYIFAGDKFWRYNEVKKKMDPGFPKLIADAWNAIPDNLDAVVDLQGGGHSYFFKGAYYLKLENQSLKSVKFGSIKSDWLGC
Procedure, shortened: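 APMA- or trypsin-activated human MMPs (MMP-1 from transfected HT-1080 cells, MMP-2 from transfected cells) preincubated with inhibitor in 1% DMSO at room temperature, then 4 μM MCA-Pro-Leu-Gly-Leu-Dpa-Ala-Arg-NH2 added in Tris/NaCl/CaCl2 buffer pH 7.5. IC50 from fluorescence reduction versus inhibitor concentration.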

[1] = recombinant human MMP-2, MCA peptide substrate 4 μM, pH 7.5, room temperature, read-out: MMP-2 IC50

Row | IC50 (MMP-1) [nM] | IC50 (MMP-13; read-out: MMP-13 IC50) [nM] | IC50 (MMP-2; [1]) [nM] | Structure (SMILES) | IC50 (MMP-13; MMP-13 IC50 (nM)) [nM] | IC50 (MMP-2; MMP-2 IC50 (nM)) [nM]
1 | > 10000 | 15.4 | 2000 | O=C(Nc1ccc(OC(F)(F)F)cc1)C1CCN(c2ccc(S(=O)(=O)C3(C(=O)NO)CCOCC3)cc2)CC1 [Example 73] | – | –
2 | > 10000 | 4900 | 3500 | CC1(C)CC2CC(C)(CN2c2ccc(S(=O)(=O)C3(C(=O)NO)CCOCC3)cc2)C1 (stereo not drawn) [Example 214] | – | –
3 | > 10000 | > 10000 | > 10000 | O=C(NO)C1(S(=O)(=O)c2ccc(N3CC4CC3CN4c3cccc(F)c3)cc2)CCOCC1 (stereo not drawn) [Example 491] | – | –
4 | > 10000 | 0.3 | 0.1 | CS(=O)(=O)N1CCC(C(=O)NO)(S(=O)(=O)c2ccc(Oc3ccc(OC(F)(F)F)cc3)cc2)CC1 [Example 273, N-Hydroxy-1-(methylsulfonyl)-4-[[4-[4-sulfonyl]-(trifluoromethoxy)phenoxy]phenyl]-4-piperidinecarboxamide] | – | –
5 | > 10000 | 16.9 | 87.7 | O=C(NO)C1(S(=O)(=O)c2ccc(N3CCC(Oc4ccc([N+](=O)[O-])c(C(F)(F)F)c4)CC3)cc2)CCOCC1 [Example 569] | – | –
6 | > 10000 | 6 | 500 | COc1c(F)c(F)c(COC2CCN(c3ccc(S(=O)(=O)C4(C(=O)NO)CCOCC4)cc3)CC2)c(F)c1F [Example 561] | – | –
7 | > 10000 | 0.6 | 0.2 | O=C(CCCCN1CCCC1)N1CCC(C(=O)NO)(S(=O)(=O)c2ccc(Oc3ccc(C(F)(F)F)cc3)cc2)CC1 [Example 341] | – | –
8 | > 10000 | 3.8 | 160 | Cc1ccc(COC2CCN(c3ccc(S(=O)(=O)C4(C(=O)NO)CCOCC4)cc3)CC2)cc1 [Example 172] | – | –
9 | > 10000 | 28.8 | 21.7 | O=C(CS(=O)(=O)c1ccc(Oc2ccncc2)cc1)NO [Example 227] | – | –
10 | 8800 | 1.6 | 3.3 | O=C(NO)C1(S(=O)(=O)c2ccc(N3CCC(Oc4ccc5c(c4)OCO5)CC3)cc2)CCOCC1 [Example 644] | – | –
11 | > 10000 | 2.5 | 290 | O=C(NO)C1(S(=O)(=O)c2ccc(N3CCC(OCc4ccc(OC(F)(F)F)cc4)CC3)cc2)CCOCC1 [Example 175] | – | –
12 | > 10000 | 14 | 1100 | CC(C)NC(=O)OC1CCN(c2ccc(S(=O)(=O)C3(C(=O)NO)CCOCC3)cc2)CC1 [Example 517] | – | –
13 | > 10000 | 14 | 63 | O=C(NO)C1(S(=O)(=O)c2ccc(N3CCC(CCOCc4ccc(Cl)c(Cl)c4)CC3)cc2)CCOCC1 [Example 502] | – | –
14 | > 10000 | 120 | 4600 | O=C(NO)C1(S(=O)(=O)c2ccc(N3CCC(Oc4ccccc4C(F)(F)F)CC3)cc2)CCOCC1 [Example 568] | – | –
15 | > 10000 | 0.18 | 0.1 | Cc1ccc(N2CCC(C(=O)NO)(S(=O)(=O)c3ccc(Oc4ccc(OC(F)(F)F)cc4)cc3)CC2)cc1 [Example 229, N-Hydroxy-1-(4-methylphenyl)-4-[[4-[4-(trifluoromethoxy)phenoxy]phenyl]sulfonyl]-4-piperidinecarboxamide Monohydrochloride] | – | –
16 | > 10000 | 4 | 3.7 | COc1ccc(OC2CCN(c3ccc(S(=O)(=O)C4(C(=O)NO)CCOCC4)cc3)CC2)cc1OC [Example 616] | – | –
17 | > 10000 | 3.7 | 220 | CC(C)COCc1ccc(COC2CCN(c3ccc(S(=O)(=O)C4(C(=O)NO)CCOCC4)cc3)CC2)cc1 [Example 555] | – | –
18 | > 10000 | 2.3 | 29.2 | O=C(NO)C1(S(=O)(=O)c2ccc(OC3CCC(OCc4ccccc4Cl)C3)cc2)CCOCC1 (stereo not drawn) [Example 665] | – | –
19 | > 10000 | 50 | 455 | O=C(NO)C1(S(=O)(=O)c2ccc(N3CCCN(S(=O)(=O)c4ccc(OC(F)(F)F)cc4)CC3)cc2)CCOCC1 [Example 699] | – | –
20 | > 10000 | 20 | 2000 | Cc1ccc([N+](=O)[O-])c(OC2CCN(c3ccc(S(=O)(=O)C4(C(=O)NO)CCOCC4)cc3)CC2)c1 [Example 550] | – | –
21 | > 10000 | 2.2 | 20 | CCCCCC(=O)C1CCN(c2ccc(S(=O)(=O)C3(C(=O)NO)CCOCC3)cc2)CC1 [Example 755] | – | –
22 | > 10000 | 20 | 60.7 | O=C(NO)C1(S(=O)(=O)c2ccc(N3CC[C@@H](OCc4ccccc4)C3)cc2)CCOCC1 [Example 530] | – | –
23 | > 10000 | 13 | 235 | COCCN1CCC(C(=O)NO)(S(=O)(=O)c2ccc(N3CCC(C(=O)Nc4cccc(OC(F)(F)F)c4)CC3)cc2)CC1 [Example 249, N-Hydroxy-1-(2-methoxyethyl)-4-[[4-[4-[[[3-(trifluoromethoxy)phenyl]amino]carbonyl]-1-piperidinyl]phenyl]sulfonyl]-4-piperidinecarboxamide, Monohydrochloride] | – | –
24 | > 10000 | 2.2 | 32.6 | O=C(NO)C1(S(=O)(=O)c2ccc(N3CCC(Oc4ccccc4)CC3)cc2)CCOCC1 [Example 185, N-Hydroxy-4[[[4-(4-phenoxy)piperidyl]phenyl]sulfonyl]-1-tetrahydropyrancarboxamide] | – | –

Row | Structure (SMILES) | IC50 (MMP-1) [nM] | IC50 (MMP-13; read-out: MMP-13 IC50) [nM] | IC50 (MMP-2; [1]) [nM] | IC50 (MMP-13; MMP-13 IC50 (nM)) [nM] | IC50 (MMP-2; MMP-2 IC50 (nM)) [nM]
25 | O=C(Nc1c(Cl)cccc1Cl)N1CCC(C(=O)NO)(S(=O)(=O)c2ccc(Oc3ccc(OC(F)(F)F)cc3)cc2)CC1 [Example 355] | 7000 | 0.4 | < 0.1 | – | –
26 | Cc1ccc(C(=O)C2CCN(c3ccc(S(=O)(=O)C4(C(=O)NO)CCOCC4)cc3)CC2)cc1F [Example 736] | > 10000 | 0.9 | 145 | – | –
27 | COCCN(CCOC)CC(=O)N1CCC(C(=O)NO)(S(=O)(=O)c2ccc(N3CCC(C(=O)N4CC(C)CC(C)C4)CC3)cc2)CC1 (stereo not drawn) [Example 303] | > 10000 | 115 | > 10000 | – | –
28 | O=C(NO)C1(S(=O)(=O)c2ccc(N3CCC(n4cnc5ccccc54)CC3)cc2)CCOCC1 [Example 475] | > 10000 | 27.1 | 500 | – | –
29 | COCCN1CCC(C(=O)NO)(S(=O)(=O)c2ccc(N3CCC(C(=O)Nc4ccccc4)CC3)cc2)CC1 [Example 236, N-Hydroxy-1-(2-methoxyethyl)-4-[[4-[4-[(phenylamino)carbonyl]-1-piperidinyl]phenyl]-sulfonyl]-4-piperidinecarboxamide Monohydrochloride)] | > 10000 | – | – | 9 | 400
30 | COc1ccc(C(=O)C2CCN(c3ccc(S(=O)(=O)C4(C(=O)NO)CCOCC4)cc3)CC2)cc1 [Example 647] | > 10000 | 6 | 160 | – | –
31 | O=C(c1ccco1)N1CCC(C(=O)NO)(S(=O)(=O)c2ccc(N3CCC(OCc4ccc(F)cc4)CC3)cc2)CC1 [Example 424] | > 10000 | 5.5 | 80 | – | –
32 | CCOc1ccc(C(=O)C2CCN(c3ccc(S(=O)(=O)C4(C(=O)NO)CCOCC4)cc3)CC2)cc1 [Example 791] | > 10000 | 2 | 700 | – | –
33 | CC1CC(C)CN(C(=O)C2CCN(c3ccc(S(=O)(=O)C4(C(=O)NO)CCN(C(=O)CN5CCC(O)CC5)CC4)cc3)CC2)C1 (stereo not drawn) [Example 304] | > 10000 | 30.6 | 7000 | – | –
34 | O=C(NO)C1(S(=O)(=O)c2ccc(N3CCC(Sc4ccc(OC(F)(F)F)cc4)CC3)cc2)CCN(C2CC2)CC1 [Example 415] | > 10000 | 50.4 | 246 | – | –
35 | COc1ccc(C(=O)C2CCN(c3ccc(S(=O)(=O)C4(C(=O)NO)CCOCC4)cc3)CC2)cc1F [Example 735] | > 10000 | 9 | 800 | – | –
